Data from article PMC5580309, “Molecular-scale features that govern the effects of O-glycosylation on a carbohydrate-binding module” (Chemical Science, 2015).
Bridge positions count the residues as written; N and C are the ends. Peptide text beside a SMILES is read from it. * marks the point of attachment. X8 = O=P(O)(O)OC[C@H]1O[C@H](O[C@H]2[C@@H](O)[C@H](O)[C@@H](CO)O[C@@H]2*)[C@@H](O)[C@@H](O)[C@@H]1O; X2 = OC[C@H]1O[C@H](O[C@H]2[C@@H](O)[C@H](O)[C@@H](CO)O[C@@H]2*)[C@@H](O)[C@@H](O)[C@@H]1O; X4 = OC[C@H]1O[C@H](OC[C@H]2O[C@H](*)[C@@H](O)[C@@H](O)[C@@H]2O)[C@H](O)[C@@H](O)[C@@H]1O

Target: T1, thermolysin (Bacillus thermoproteolyticus, UniProt P00800)
T1 sequence (P00800 233-548): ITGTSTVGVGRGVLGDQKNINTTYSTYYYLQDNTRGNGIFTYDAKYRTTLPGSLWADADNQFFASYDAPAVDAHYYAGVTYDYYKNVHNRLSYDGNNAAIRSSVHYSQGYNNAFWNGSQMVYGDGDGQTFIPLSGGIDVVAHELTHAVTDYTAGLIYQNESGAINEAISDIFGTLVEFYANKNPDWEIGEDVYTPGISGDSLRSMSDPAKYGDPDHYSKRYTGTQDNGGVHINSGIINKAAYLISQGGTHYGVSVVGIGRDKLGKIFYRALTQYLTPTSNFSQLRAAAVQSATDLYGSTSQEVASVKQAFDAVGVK
Experiment: Proteolytic stability: half-life to thermolysin degradation
Format: in vitro ADME
Settings: for Change in Half-Life to Thermolysin Degradation: glyco-variant minus its corresponding unglycosylated CBM (e.g. 2-1), *** not used in the correlation plot; for half-life: thermolysin (isolated protease), thermolysin degradation, mean of three trials ± SD, procedures as described previously (ESI ref 18)
Method: All error bars reported are standard deviations of data achieved from three separate trials.
cellulose that were determined in accordance with our procedures as described previously 18.
The results are presented as mean of three trials ± SD. *Denotes an averaged value of four trials

Row | Compound | Change in Half-Life to Thermolysin Degradation | half-life
1 | CC[C@H](C)[C@@H]1NC(=O)CNC(=O)CNC(=O)[C@@H](NC(=O)[C@H](CCC(N)=O)NC(=O)CNC(=O)[C@H](Cc2ccc(O)cc2)NC(=O)[C@H](Cc2c[nH]cn2)NC(=O)[C@H](CO[C@H]2O[C@H](CO[C@H]3O[C@H](CO)[C@@H](O)[C@H](O)[C@H]3O)[C@@H](O)[C@H](O)[C@@H]2O)NC(=O)[C@H](CCC(N)=O)NC(=O)[C@@H](N)[C@@H](C)O)CSSC[C@@H]2NC(=O)[C@H]([C@@H](C)O)NC(=O)[C@H]([C@@H](C)O)NC(=O)CNC(=O)[C@H](CO)NC(=O)[C@H](C)NC(=O)[C@H](CSSC[C@@H](C(=O)N[C@@H](CC(C)C)C(=O)O)NC(=O)[C@H](CCC(N)=O)NC(=O)[C@H](CO)NC(=O)[C@H](Cc3ccc(O)cc3)NC(=O)[C@H](Cc3ccc(O)cc3)NC(=O)[C@@H]3CCCN3C(=O)[C@H](CC(N)=O)NC(=O)[C@H](CC(C)C)NC(=O)[C@H](C(C)C)NC(=O)[C@H](CCC(N)=O)NC2=O)NC(=O)[C@H](C(C)C)NC(=O)[C@H]([C@@H](C)O)NC(=O)[C@@H]2CCCN2C(=O)CNC(=O)[C@H](CO)NC(=O)[C@H](Cc2ccc(O)cc2)NC(=O)CNC1=O [CBM variant 30] (H-TQS(X4)HYGQCGGIGYSGPTVCASGTTCQVLNPYYSQCL-OH; disulfide 8-25, 19-35) | 33 min | 46.8 ± 6.6 min
2 | CC[C@H](C)[C@@H]1NC(=O)CNC(=O)CNC(=O)[C@@H](NC(=O)[C@H](CCC(N)=O)NC(=O)CNC(=O)[C@H](Cc2ccc(O)cc2)NC(=O)[C@H](Cc2c[nH]cn2)NC(=O)[C@H](CO[C@H]2O[C@H](CO)[C@@H](O)[C@H](O)[C@@H]2O[C@H]2O[C@H](COP(=O)(O)O)[C@@H](O)[C@H](O)[C@@H]2O)NC(=O)[C@H](CCC(N)=O)NC(=O)[C@@H](N)[C@@H](C)O)CSSC[C@@H]2NC(=O)[C@H]([C@@H](C)O)NC(=O)[C@H]([C@@H](C)O)NC(=O)CNC(=O)[C@H](CO)NC(=O)[C@H](C)NC(=O)[C@H](CSSC[C@@H](C(=O)N[C@@H](CC(C)C)C(=O)O)NC(=O)[C@H](CCC(N)=O)NC(=O)[C@H](CO)NC(=O)[C@H](Cc3ccc(O)cc3)NC(=O)[C@H](Cc3ccc(O)cc3)NC(=O)[C@@H]3CCCN3C(=O)[C@H](CC(N)=O)NC(=O)[C@H](CC(C)C)NC(=O)[C@H](C(C)C)NC(=O)[C@H](CCC(N)=O)NC2=O)NC(=O)[C@H](C(C)C)NC(=O)[C@H]([C@@H](C)O)NC(=O)[C@@H]2CCCN2C(=O)CNC(=O)[C@H](CO)NC(=O)[C@H](Cc2ccc(O)cc2)NC(=O)CNC1=O [CBM variant 31] (H-TQS(X8)HYGQCGGIGYSGPTVCASGTTCQVLNPYYSQCL-OH; disulfide 8-25, 19-35) | 12 min | 25.8 ± 3 min
3 | CC[C@H](C)[C@@H]1NC(=O)CNC(=O)CNC(=O)[C@@H](NC(=O)[C@H](CCC(N)=O)NC(=O)CNC(=O)[C@H](C)NC(=O)[C@H](Cc2c[nH]cn2)NC(=O)[C@H](CO[C@H]2O[C@H](CO)[C@@H](O)[C@H](O)[C@@H]2O[C@H]2O[C@H](CO)[C@@H](O)[C@H](O)[C@@H]2O)NC(=O)[C@H](CCC(N)=O)NC(=O)[C@@H](N)[C@@H](C)O)CSSC[C@@H]2NC(=O)[C@H]([C@@H](C)O)NC(=O)[C@H]([C@@H](C)O)NC(=O)CNC(=O)[C@H](CO)NC(=O)[C@H](C)NC(=O)[C@H](CSSC[C@@H](C(=O)N[C@@H](CC(C)C)C(=O)O)NC(=O)[C@H](CCC(N)=O)NC(=O)[C@H](CO)NC(=O)[C@H](Cc3ccc(O)cc3)NC(=O)[C@H](Cc3ccc(O)cc3)NC(=O)[C@@H]3CCCN3C(=O)[C@H](CC(N)=O)NC(=O)[C@H](CC(C)C)NC(=O)[C@H](C(C)C)NC(=O)[C@H](CCC(N)=O)NC2=O)NC(=O)[C@H](C(C)C)NC(=O)[C@H]([C@@H](C)O)NC(=O)[C@@H]2CCCN2C(=O)CNC(=O)[C@H](CO)NC(=O)[C@H](Cc2ccc(O)cc2)NC(=O)CNC1=O [CBM variant 32] (H-TQS(X2)HAGQCGGIGYSGPTVCASGTTCQVLNPYYSQCL-OH; disulfide 8-25, 19-35) | 1.2 min | 6 ± 1.2 min
4 | CC[C@H](C)[C@@H]1NC(=O)CNC(=O)CNC(=O)[C@@H](NC(=O)[C@H](CCC(N)=O)NC(=O)CNC(=O)[C@H](Cc2ccc(O)cc2)NC(=O)[C@H](Cc2c[nH]cn2)NC(=O)[C@@H](NC(=O)[C@H](CCC(N)=O)NC(=O)[C@@H](N)[C@@H](C)O)[C@@H](C)O[C@H]2O[C@H](CO)[C@@H](O)[C@H](O)[C@@H]2O[C@H]2O[C@H](CO)[C@@H](O)[C@H](O)[C@@H]2O)CSSC[C@@H]2NC(=O)[C@H]([C@@H](C)O)NC(=O)[C@H]([C@@H](C)O)NC(=O)CNC(=O)[C@H](CO)NC(=O)[C@H](C)NC(=O)[C@H](CSSC[C@@H](C(=O)N[C@@H](CC(C)C)C(=O)O)NC(=O)[C@H](CCC(N)=O)NC(=O)[C@H](CO)NC(=O)[C@H](Cc3ccc(O)cc3)NC(=O)[C@H](Cc3ccc(O)cc3)NC(=O)[C@@H]3CCCN3C(=O)[C@H](CC(N)=O)NC(=O)[C@H](CC(C)C)NC(=O)[C@H](C(C)C)NC(=O)[C@H](CCC(N)=O)NC2=O)NC(=O)[C@H](C(C)C)NC(=O)[C@H]([C@@H](C)O)NC(=O)[C@@H]2CCCN2C(=O)CNC(=O)[C@H](CO)NC(=O)[C@H](Cc2ccc(O)cc2)NC(=O)CNC1=O [CBM variant 33] (H-TQT(X2)HYGQCGGIGYSGPTVCASGTTCQVLNPYYSQCL-OH; disulfide 8-25, 19-35) | 72 min | 93.6 ± 24 min
5 | CC[C@H](C)[C@@H]1NC(=O)CNC(=O)CNC(=O)[C@@H](NC(=O)[C@H](CCC(N)=O)NC(=O)CNC(=O)[C@H](Cc2ccc(O)cc2)NC(=O)[C@H](Cc2c[nH]cn2)NC(=O)[C@H](CS[C@H]2O[C@H](CO)[C@@H](O)[C@H](O)[C@@H]2O[C@H]2O[C@H](CO)[C@@H](O)[C@H](O)[C@@H]2O)NC(=O)[C@H](CCC(N)=O)NC(=O)[C@@H](N)[C@@H](C)O)CSSC[C@@H]2NC(=O)[C@H]([C@@H](C)O)NC(=O)[C@H]([C@@H](C)O)NC(=O)CNC(=O)[C@H](CO)NC(=O)[C@H](C)NC(=O)[C@H](CSSC[C@@H](C(=O)N[C@@H](CC(C)C)C(=O)O)NC(=O)[C@H](CCC(N)=O)NC(=O)[C@H](CO)NC(=O)[C@H](Cc3ccc(O)cc3)NC(=O)[C@H](Cc3ccc(O)cc3)NC(=O)[C@@H]3CCCN3C(=O)[C@H](CC(N)=O)NC(=O)[C@H](CC(C)C)NC(=O)[C@H](C(C)C)NC(=O)[C@H](CCC(N)=O)NC2=O)NC(=O)[C@H](C(C)C)NC(=O)[C@H]([C@@H](C)O)NC(=O)[C@@H]2CCCN2C(=O)CNC(=O)[C@H](CO)NC(=O)[C@H](Cc2ccc(O)cc2)NC(=O)CNC1=O [CBM variant 34] (H-TQC(X2)HYGQCGGIGYSGPTVCASGTTCQVLNPYYSQCL-OH; disulfide 8-25, 19-35) |  | 10.8 ± 1.2 min
